Measured values from patent US9833497B2, “Human originated EGF domain proteins and use of the same” (CHENGDU SOURCEBIO LIMITED-LIABILITY COMPANY, priority 2013, dated 2017).

Key:
Format in all cases: cell-based
Klebsiella pneumonia = assay: MIC against Gram-negative bacteria: Klebsiella pneumonia
Outline: (§1)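 MIC, the lowest recombinant protein concentration giving no bacterial growth, found by two-fold serial dilution of human EGF-domain proteins in triplicate. Inoculum 5×10^5 CFU/mL in LB from cultures at McFarland 0.5; plates incubated at 37° C, 175 rpm shaking.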

Pseudomonas aeruginosa = assay: MIC against Gram-negative bacteria: Pseudomonas aeruginosa
Outline: as §1

Proteus vulgaris = assay: MIC against Gram-negative bacteria: Proteus vulgaris
Outline: as §1

Proteus mirabilis = assay: MIC against Gram-negative bacteria: Proteus mirabilis
Outline: as §1

Enterobacter cloacae = assay: MIC against Gram-negative bacteria: Enterobacter cloacae
Outline: as §1

Moraxella catarrhalis = assay: MIC against Gram-negative bacteria: Moraxella catarrhalis
Outline: as §1

Aeromonas hydrophila = assay: MIC against Gram-negative bacteria: Aeromonas hydrophila
Outline: as §1

E. coli BL21 = assay: MIC against Gram-negative bacteria: E. coli BL21
Outline: as §1

Serratia marcescens = assay: MIC against Gram-negative bacteria: Serratia marcescens
Outline: as §1

Citrobacter diversus = assay: MIC against Gram-negative bacteria: Citrobacter diversus
Outline: as §1

E. coli DH5α = assay: Antibacterial activity: MIC and growth curve against E. coli DH5α in 96-well plate; details: minimal inhibitory concentration against E. coli DH5α; 96-well plate, 5×10^5 CFU/mL, 37° C., judged after 8 h
Outline: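 Log-phase bacteria (OD600 ~0.5) resuspended in LB at 5×10^5 CFU/mL, exposed to recombinant protein at 50, 25, 12.5 μg/mL final in triplicate, 37 °C shaking at 175 rpm. OD600 read every 30 min; MIC is lowest concentration showing no growth.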

[1] = 10 h cultivation at 37° C., 5×10^5 CFU/mL, two-fold serial dilution
[2] = K. pneumonia, 10 h cultivation at 37° C., 5×10^5 CFU/mL
[3] = P. aeruginosa, 10 h cultivation at 37° C., 5×10^5 CFU/mL
[4] = P. vulgaris, 10 h cultivation at 37° C., 5×10^5 CFU/mL
[5] = P. mirabilis, 10 h cultivation at 37° C., 5×10^5 CFU/mL
[6] = E. cloacae, 10 h cultivation at 37° C., 5×10^5 CFU/mL
[7] = M. catarrhalis, 10 h cultivation at 37° C., 5×10^5 CFU/mL
[8] = A. hydrophila, 10 h cultivation at 37° C., 5×10^5 CFU/mL
[9] = E. coli BL21, 10 h cultivation at 37° C., 5×10^5 CFU/mL
[10] = S. marcescens, 10 h cultivation at 37° C., 5×10^5 CFU/mL
[11] = C. diversus, 10 h cultivation at 37° C., 5×10^5 CFU/mL
[12] = 96-well plate, 5×10^5 CFU/mL, 37° C., 10 h

Work on “PRT938 (DIDDCLANPCQNGGSCMDGVNTFSCLCLPGFTGDKCQ; listed as Homo sapiens)” yielded an MIC (Klebsiella pneumonia; K. pneumonia, 10 h cultivation at 37° C.) of 12.5 µg/mL, an MIC (Pseudomonas aeruginosa; P. aeruginosa, 10 h cultivation at 37° C.) of 25 µg/mL and an MIC (Proteus vulgaris; P. vulgaris, 10 h cultivation at 37° C.) of 50 µg/mL. The MIC (Proteus mirabilis; P. mirabilis, 10 h cultivation at 37° C.) was 12.5 µg/mL, the MIC (Enterobacter cloacae; E. cloacae, 10 h cultivation at 37° C.) was 25 µg/mL and the MIC (Moraxella catarrhalis; M. catarrhalis, 10 h cultivation at 37° C.) was 50 µg/mL. It also gave an MIC (Aeromonas hydrophila; A. hydrophila, 10 h cultivation at 37° C.) of 50 µg/mL, an MIC (E. coli BL21; E. coli BL21, 10 h cultivation at 37° C.) of 50 µg/mL and an MIC (Serratia marcescens; S. marcescens, 10 h cultivation at 37° C.) of 12.5 µg/mL. For the same substance, the MIC (Citrobacter diversus; C. diversus, 10 h cultivation at 37° C.) was 12.5 µg/mL and the MIC (E. coli DH5α) was 12.5 µg/mL.
In the case of “PRT1088 (PVNPCCYYPCQHQGICVRFGLDRYQCDCTRTGYSGPNCT; listed as Homo sapiens)”, the “MIC K. pneumonia” value (Klebsiella pneumonia; [1]) is reported as 12.5 µg/mL, the “MIC P. aeruginosa” value (Pseudomonas aeruginosa; [1]) is reported as 50 µg/mL and the “MIC P. vulgaris” value (Proteus vulgaris; [1]) is reported as 25 µg/mL. The “MIC P. mirabilis” value (Proteus mirabilis; [1]) was 12.5 µg/mL, the “MIC E. cloacae” value (Enterobacter cloacae; [1]) was 50 µg/mL and the “MIC M. catarrhalis” value (Moraxella catarrhalis; [1]) was 25 µg/mL. The “MIC A. hydrophila” value (Aeromonas hydrophila; [1]) was 50 µg/mL, the “MIC E. coli BL21” value (E. coli BL21; [1]) was 50 µg/mL and the “MIC S. marcescens” value (Serratia marcescens; [1]) was 50 µg/mL. The “MIC C. diversus” value (Citrobacter diversus; [1]) was 50 µg/mL and the MIC (E. coli DH5α) was 25 µg/mL.
For “PRT1402 (DGCPDLCNGNGRCTLGQNSWQCVCQTGWRGPGCN; listed as Homo sapiens)”, the “MIC against K. pneumonia” value (Klebsiella pneumonia; Klebsiella pneumonia, 5×10^5 CFU/mL, 10 h cultivation at 37° C.) was 12.5 µg/mL, the “MIC against P. aeruginosa” value (Pseudomonas aeruginosa; Pseudomonas aeruginosa, 5×10^5 CFU/mL, 10 h cultivation at 37° C.) was 25 µg/mL and the “MIC against P. vulgaris” value (Proteus vulgaris; Proteus vulgaris, 5×10^5 CFU/mL, 10 h cultivation at 37° C.) was 25 µg/mL. The “MIC against P. mirabilis” value (Proteus mirabilis; Proteus mirabilis, 5×10^5 CFU/mL, 10 h cultivation at 37° C.) was 50 µg/mL, the “MIC against E. cloacae” value (Enterobacter cloacae; Enterobacter cloacae, 5×10^5 CFU/mL, 10 h cultivation at 37° C.) was 50 µg/mL and the “MIC against M. catarrhalis” value (Moraxella catarrhalis; Moraxella catarrhalis, 5×10^5 CFU/mL, 10 h cultivation at 37° C.) was 25 µg/mL. The “MIC against A. hydrophila” value (Aeromonas hydrophila; Aeromonas hydrophila, 5×10^5 CFU/mL, 10 h cultivation at 37° C.) was 25 µg/mL, the “MIC against E. coli BL21” value (E. coli BL21; E. coli BL21, 5×10^5 CFU/mL, 10 h cultivation at 37° C.) was 12.5 µg/mL and the “MIC against S. marcescens” value (Serratia marcescens; Serratia marcescens, 5×10^5 CFU/mL, 10 h cultivation at 37° C.) was 12.5 µg/mL. The “MIC against C. diversus” value (Citrobacter diversus; Citrobacter diversus, 5×10^5 CFU/mL, 10 h cultivation at 37° C.) was 12.5 µg/mL and the MIC (E. coli DH5α) was 25 µg/mL.
“PRT423 (QPNTCKDNGPCKQVCSTVGGSAICSCFPGYAIMADGVSCE; listed as Homo sapiens)” gave an MIC (Klebsiella pneumonia; [2]) of 25 µg/mL, an MIC (Pseudomonas aeruginosa; [3]) of 12.5 µg/mL and an MIC (Proteus vulgaris; [4]) of 25 µg/mL. The MIC (Proteus mirabilis; [5]) was 50 µg/mL, the MIC (Enterobacter cloacae; [6]) was 50 µg/mL and the MIC (Moraxella catarrhalis; [7]) was 25 µg/mL. It also gave an MIC (Aeromonas hydrophila; [8]) of 25 µg/mL, an MIC (E. coli BL21; [9]) of 25 µg/mL and an MIC (Serratia marcescens; [10]) of 12.5 µg/mL. It also gave an MIC (Citrobacter diversus; [11]) of 12.5 µg/mL and an MIC (E. coli DH5α) of 12.5 µg/mL.
“PRT113 (DLDECASRSKSGEEDPQPQCQHLCHNYVGGYFCSCRPGYELQEDRHSCQ; listed as Homo sapiens)” was tested, and the “MIC (μg/mL) K. pneumonia” value (Klebsiella pneumonia; Klebsiella pneumonia, 96-well plate, 5×10^5 CFU/mL, 37° C., 10 h) was 12.5 µg/mL, the “MIC (μg/mL) P. aeruginosa” value (Pseudomonas aeruginosa; Pseudomonas aeruginosa, 96-well plate, 5×10^5 CFU/mL, 37° C., 10 h) was 25 µg/mL and the “MIC (μg/mL) P. vulgaris” value (Proteus vulgaris; Proteus vulgaris, 96-well plate, 5×10^5 CFU/mL, 37° C., 10 h) was 12.5 µg/mL. For the same substance, the “MIC (μg/mL) P. mirabilis” value (Proteus mirabilis; Proteus mirabilis, 96-well plate, 5×10^5 CFU/mL, 37° C., 10 h) was 12.5 µg/mL, the “MIC (μg/mL) E. cloacae” value (Enterobacter cloacae; Enterobacter cloacae, 96-well plate, 5×10^5 CFU/mL, 37° C., 10 h) was 25 µg/mL and the “MIC (μg/mL) M. catarrhalis” value (Moraxella catarrhalis; Moraxella catarrhalis, 96-well plate, 5×10^5 CFU/mL, 37° C., 10 h) was 50 µg/mL. The “MIC (μg/mL) A. hydrophila” value (Aeromonas hydrophila; Aeromonas hydrophila, 96-well plate, 5×10^5 CFU/mL, 37° C., 10 h) was 50 µg/mL, the “MIC (μg/mL) E. coli BL21” value (E. coli BL21; E. coli BL21, 96-well plate, 5×10^5 CFU/mL, 37° C., 10 h) was 50 µg/mL and the “MIC (μg/mL) S. marcescens” value (Serratia marcescens; Serratia marcescens, 96-well plate, 5×10^5 CFU/mL, 37° C., 10 h) was 100 µg/mL. The “MIC (μg/mL) C. diversus” value (Citrobacter diversus; Citrobacter diversus, 96-well plate, 5×10^5 CFU/mL, 37° C., 10 h) was 12.5 µg/mL and the MIC (E. coli DH5α) was 12.5 µg/mL.
In the case of “PRT214 (DDNECGNLTQSCGENANCTNTEGSYYCMCVPGFRSSSNQDRFITNDGTVCI; listed as Homo sapiens)”, the “MIC (μg/mL) K. pneumonia” value (Klebsiella pneumonia; [2]) is reported as 25 µg/mL, the “MIC (μg/mL) P. aeruginosa” value (Pseudomonas aeruginosa; [3]) is reported as 12.5 µg/mL and the “MIC (μg/mL) P. vulgaris” value (Proteus vulgaris; [4]) is reported as 25 µg/mL. The “MIC (μg/mL) P. mirabilis” value (Proteus mirabilis; [5]) was 12.5 µg/mL, the “MIC (μg/mL) E. cloacae” value (Enterobacter cloacae; [6]) was 12.5 µg/mL and the “MIC (μg/mL) M. catarrhalis” value (Moraxella catarrhalis; [7]) was 25 µg/mL. The “MIC (μg/mL) A. hydrophila” value (Aeromonas hydrophila; [8]) was 25 µg/mL, the “MIC (μg/mL) E. coli BL21” value (E. coli BL21; [9]) was 25 µg/mL and the “MIC (μg/mL) S. marcescens” value (Serratia marcescens; [10]) was 12.5 µg/mL. For the same substance, the “MIC (μg/mL) C. diversus” value (Citrobacter diversus; [11]) was 12.5 µg/mL and the MIC (E. coli DH5α) was 12.5 µg/mL.
In the case of “PRT713 (GTNVCARDNGGCKQLCLYRGNSRRTCACAHGYLAEDGVTCL; listed as Homo sapiens)”, the “MIC K. pneumonia” value (Klebsiella pneumonia; [12]) is reported as 12.5 µg/mL, the “MIC P. aeruginosa” value (Pseudomonas aeruginosa; [12]) is reported as 12.5 µg/mL and the “MIC P. vulgaris” value (Proteus vulgaris; [12]) is reported as 12.5 µg/mL. For the same substance, the “MIC P. mirabilis” value (Proteus mirabilis; [12]) was 50 µg/mL, the “MIC E. cloacae” value (Enterobacter cloacae; [12]) was 50 µg/mL and the “MIC M. catarrhalis” value (Moraxella catarrhalis; [12]) was 12.5 µg/mL. For the same substance, the “MIC A. hydrophila” value (Aeromonas hydrophila; [12]) was 12.5 µg/mL, the “MIC E. coli BL21” value (E. coli BL21; [12]) was 25 µg/mL and the “MIC S. marcescens” value (Serratia marcescens; [12]) was 50 µg/mL. For the same substance, the “MIC C. diversus” value (Citrobacter diversus; [12]) was 50 µg/mL and the MIC (E. coli DH5α) was 50 µg/mL.
